Assay results as given in ChEMBL document CHEMBL2203066 (J Med Chem, 2012).
The source made the active and inactive calls. No cut-off for these calls is given here.

Key:
[1] = Drug excretion in Sprague-Dawley rat urine at 5 mg/kg, po; assay type: ADME, organism-based; parameters: dose 5 mg/kg, route oral; conditions: read-out: Drug excretion
[2] = Drug excretion in Sprague-Dawley rat feces at 5 mg/kg, po; assay type: ADME, organism-based; parameters: dose 5 mg/kg, route oral; conditions: faeces, read-out: Drug excretion
[3] = target: Neuraminidase (Influenza A virus, UniProt B4URF0)
[4] = tested on: Influenza A virus; test: Antiviral activity against Influenza A virus A/Brisbane/10/2007(H3N2) infected in MDCK cells assessed as protection against virus-induced cytopathic effect after 48 to 72 hrs by CellTiter 96 aqueous assay; assay type: functional, organism-based
[5] = tested on: Influenza B virus; test: Antiviral activity against Influenza B virus B/Florida/4/2006 infected in MDCK cells assessed as protection against virus-induced cytopathic effect after 48 to 72 hrs by CellTiter 96 aqueous assay; assay type: functional, cell-based; conditions: B/Florida/4/2006, MDCK
[6] = tested on: Influenza B virus; test: Antiviral activity against Influenza B virus B/Sichuan/379/99 infected in MDCK cells assessed as protection against virus-induced cytopathic effect after 48 to 72 hrs by CellTiter 96 aqueous assay; assay type: functional, organism-based; conditions: B/Sichuan/379/99, MDCK
[7] = tested on: MDCK; test: Cytotoxicity against MDCK cells at 100 uM; assay type: cell-based, Canis lupus familiaris; conditions: dog
[8] = tested on: Blood; test: Metabolic stability in human whole blood at 5 uM; assay type: ADME, tissue-based
[9] = Metabolic stability in dog whole blood at 5 uM; assay type: ADME, tissue-based, Canis lupus familiaris
[10] = tested on: Blood; test: Metabolic stability in rat whole blood at 5 uM; assay type: ADME, tissue-based
[11] = tested on: Liver microsomes; test: Metabolic stability in human liver microsomes at 3 uM; assay type: ADME, Microsome
[12] = tested on: Liver; test: Metabolic stability in dog liver microsomes at 3 uM; assay type: ADME, Canis lupus familiaris, Microsome
[13] = tested on: Liver microsomes; test: Metabolic stability in rat liver microsomes at 3 uM; assay type: ADME, Microsome
[14] = tested on: Influenza A virus; test: Antiviral activity against Influenza A virus A/WSN/1933(H1N1) infected in BALB/c mouse assessed as protection against virus-induced mortality at 10 mg/kg/day, po bid for 5 days followed by viral infection at 4 hrs post first dose measured 8 days post infection; assay type: functional, organism-based
[15] = tested on: Influenza A virus; test: Antiviral activity against Influenza A virus A/WSN/1933(H1N1) infected in BALB/c mouse assessed as protection against virus-induced body weight loss at 10 mg/kg/day, po bid for 5 days followed by viral infection at 4 hrs post first dose measured 8 days post infection; assay type: functional, organism-based
[16] = tested on: Influenza A virus; test: Antiviral activity against Influenza A virus A/WSN/1933(H1N1) infected in BALB/c mouse assessed as protection against virus-induced mortality at 1 mg/kg/day, po bid for 5 days followed by viral infection at 4 hrs post first dose measured after 2 to 14 days; assay type: functional, organism-based
[17] = tested on: Influenza A virus; test: Antiviral activity against Influenza A virus A/CA/07/2009(H1N1) infected in BALB/c mouse assessed as protection against virus-induced body weight loss at 10 mg/kg/day, po bid for 5 days followed by viral infection at 4 hrs post first dose measured 2 to 14 days post infection; assay type: functional, organism-based; conditions: A/California/07/2009(H1N1)
[18] = tested on: Influenza A virus; test: Antiviral activity against Influenza A virus A/CA/07/2009(H1N1) infected in BALB/c mouse assessed as protection against virus-induced body weight loss at 1 mg/kg/day, po bid for 5 days followed by viral infection at 4 hrs post first dose measured 20 days post infection; assay type: functional, organism-based; conditions: A/California/07/2009(H1N1)
[19] = tested on: Influenza A virus; test: Antiviral activity against Influenza A virus A/CA/07/2009(H1N1) infected in BALB/c mouse assessed as protection against virus-induced mortality at 1 mg/kg/day, po bid for 5 days followed by viral infection at 4 hrs post first dose measured on day 20 to day 21; assay type: functional, organism-based; conditions: A/California/07/2009(H1N1)
[20] = tested on: Influenza A virus; test: Antiviral activity against Influenza A virus A/CA/07/2009(H1N1) infected in BALB/c mouse assessed as protection against virus-induced mortality at 0.1 mg/kg/day, po bid for 5 days followed by viral infection at 4 hrs post first dose measured after 2 to 14 days; assay type: functional, organism-based; conditions: A/California/07/2009(H1N1)
[21] = tested on: Influenza A virus; test: Antiviral activity against Influenza A virus A/CA/07/2009(H1N1) infected in BALB/c mouse assessed as protection against virus-induced body weight loss at 0.1 mg/kg/day, po bid for 5 days followed by viral infection at 4 hrs post first dose measured after 2 to 14 days; assay type: functional, organism-based; conditions: A/California/07/2009(H1N1)
[22] = Drug metabolism in human liver microsomes at 3 uM after 1 hr; assay type: ADME, Microsome; conditions: read-out: Drug metabolism
[23] = Drug metabolism in dog liver microsomes at 3 uM after 1 hr; assay type: ADME, Canis lupus familiaris, Microsome; conditions: read-out: Drug metabolism
[24] = Drug metabolism in rat liver microsomes at 3 uM after 1 hr; assay type: ADME, Microsome; conditions: read-out: Drug metabolism
[25] = tested on: Mus musculus; test: Acute toxicity in CD1 mouse assessed as mortality at 2000 mg/kg, ip; assay type: organism-based; parameters: dose 2000 mg/kg, route intraperitoneal; conditions: in vivo
[26] = tested on: Mus musculus; test: Acute toxicity in CD1 mouse assessed as tremor at 300 to 2000 mg/kg, ip measured within 2 days; assay type: organism-based; parameters: dose 300-2000 mg/kg, route intraperitoneal; conditions: in vivo, 48 h
[27] = tested on: Mus musculus; test: Acute toxicity in CD1 mouse assessed as convulsion at 300 to 2000 mg/kg, ip measured within 2 days; assay type: organism-based; parameters: dose 300-2000 mg/kg, route intraperitoneal; conditions: in vivo, 48 h
[28] = tested on: Mus musculus; test: Acute toxicity in CD1 mouse assessed as body jerks at 300 to 2000 mg/kg, ip measured within 2 days; assay type: organism-based; parameters: dose 300-2000 mg/kg, route intraperitoneal; conditions: in vivo, 48 h
[29] = tested on: Mus musculus; test: Acute toxicity in CD1 mouse assessed as hypoactivity at 300 to 2000 mg/kg, ip measured within 2 days; assay type: organism-based; parameters: dose 300-2000 mg/kg, route intraperitoneal; conditions: in vivo, 48 h
[30] = tested on: Mus musculus; test: Acute toxicity in CD1 mouse assessed as hunched posture at 300 to 2000 mg/kg, ip measured within 2 days; assay type: organism-based; parameters: dose 300-2000 mg/kg, route intraperitoneal; conditions: in vivo, 48 h
[31] = tested on: Mus musculus; test: Acute toxicity in CD1 mouse assessed as piloerection at 300 to 2000 mg/kg, ip measured within 2 days; assay type: organism-based; parameters: dose 300-2000 mg/kg, route intraperitoneal; conditions: in vivo, 48 h
[32] = tested on: Mus musculus; test: Acute toxicity in CD1 mouse assessed as lesions at 300 to 2000 mg/kg, ip after 15 days by necropsy analysis; assay type: organism-based; parameters: dose 300-2000 mg/kg, route intraperitoneal; conditions: in vivo, 360 h
[33] = tested on: Plasma; test: Plasma concentration in Sprague-Dawley rat at 1 mg/kg, po; assay type: ADME, organism-based; parameters: dose 1 mg/kg, route oral; conditions: in vivo, BLD = below limit of detection
[34] = tested on: Influenza A virus; test: Antiviral activity against Influenza A virus A/WSN/1933(H1N1) infected in BALB/c mouse assessed as partial protection against virus-induced mortality at 0.1 mg/kg/day, po bid for 5 days followed by viral infection at 4 hrs post first dose measured 2 to 14 days post infection; assay type: functional, organism-based
[35] = tested on: Influenza A virus; test: Antiviral activity against Influenza A virus A/WSN/1933(H1N1) infected in BALB/c mouse assessed as partial protection against virus-induced body weight loss at 0.1 mg/kg/day, po bid for 5 days followed by viral infection at 4 hrs post first dose measured 2 to 14 days post infection; assay type: functional, organism-based
[36] = tested on: Mus musculus; test: Acute toxicity in CD1 mouse assessed as mortality at 750 mg/kg, iv; assay type: organism-based; parameters: dose 750 mg/kg, route intravenous; conditions: in vivo
[37] = tested on: Mus musculus; test: Acute toxicity in CD1 mouse assessed as tremor at 300 to 1000 mg/kg, iv measured within 2 days; assay type: organism-based; parameters: dose 300-1000 mg/kg, route intravenous; conditions: in vivo, 48 h
[38] = tested on: Mus musculus; test: Acute toxicity in CD1 mouse assessed as convulsion at 300 to 1000 mg/kg, iv measured within 2 days; assay type: organism-based; parameters: dose 300-1000 mg/kg, route intravenous; conditions: in vivo, 48 h
[39] = tested on: Mus musculus; test: Acute toxicity in CD1 mouse assessed as body jerks at 300 to 1000 mg/kg, iv measured within 2 days; assay type: organism-based; parameters: dose 300-1000 mg/kg, route intravenous; conditions: in vivo, 48 h
[40] = tested on: Mus musculus; test: Acute toxicity in CD1 mouse assessed as hypoactivity at 300 to 1000 mg/kg, iv measured within 2 days; assay type: organism-based; parameters: dose 300-1000 mg/kg, route intravenous; conditions: in vivo, 48 h
[41] = tested on: Mus musculus; test: Acute toxicity in CD1 mouse assessed as hunched posture at 300 to 1000 mg/kg, iv measured within 2 days; assay type: organism-based; parameters: dose 300-1000 mg/kg, route intravenous; conditions: in vivo, 48 h
[42] = tested on: Mus musculus; test: Acute toxicity in CD1 mouse assessed as piloerection at 300 to 1000 mg/kg, iv measured within 2 days; assay type: organism-based; parameters: dose 300-1000 mg/kg, route intravenous; conditions: in vivo, 48 h
[43] = tested on: Mus musculus; test: Acute toxicity in CD1 mouse assessed as lesions at 300 to 1000 mg/kg, iv after 15 days by necropsy analysis; assay type: organism-based; parameters: dose 300-1000 mg/kg, route intravenous; conditions: in vivo, 360 h
[44] = in vivo; conditions: Sprague-Dawley, rat, po, 10 mg/kg

Neuraminidase, sequence (B4URF0 whole entry): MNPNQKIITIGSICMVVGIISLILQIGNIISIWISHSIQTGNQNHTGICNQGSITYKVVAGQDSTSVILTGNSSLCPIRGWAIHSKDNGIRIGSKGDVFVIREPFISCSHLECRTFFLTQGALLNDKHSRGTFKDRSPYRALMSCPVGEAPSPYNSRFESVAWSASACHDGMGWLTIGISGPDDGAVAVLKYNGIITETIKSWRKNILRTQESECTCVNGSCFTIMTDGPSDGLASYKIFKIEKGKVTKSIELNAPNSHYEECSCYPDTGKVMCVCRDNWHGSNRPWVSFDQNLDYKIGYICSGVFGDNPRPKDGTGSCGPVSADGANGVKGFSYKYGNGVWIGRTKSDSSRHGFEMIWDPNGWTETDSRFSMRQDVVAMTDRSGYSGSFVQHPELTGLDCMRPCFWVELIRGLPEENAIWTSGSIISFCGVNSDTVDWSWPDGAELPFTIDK

## CCC(CC)O[C@@H]1C=C(P(=O)(O)O)C[C@H](NC(=N)N)[C@H]1NC(C)=O
[1]
  dose excreted: 1.5%
[2]
  dose excreted: 43.2%
[3]
  IC50: 0.0003 µM
[4]
  EC50: > 10 µM
[5]
  EC50: > 10 µM
[6]
  EC50: > 10 µM
[7]
  Activity: Non-toxic
[8]
  Stability: Unstable
[9]
  Stability: Unstable
[10]
  Stability: Unstable
[11]
  Stability: Unstable
[12]
  Stability: Unstable
[13]
  Stability: Unstable
[14]
  Activity: Active
[15]
  Activity: Active
[16]
  Activity: Active
[17]
  Activity: Active
[18]
  Activity: inactive
[19]
  Activity: inactive
[20]
  Activity: inactive
[21]
  Activity: inactive

## CCOP(=O)(OCC)C1=C[C@@H](OC(CC)CC)[C@H](NC(C)=O)[C@@H](N)C1
[14]
  Activity: inactive
[15]
  Activity: inactive
[16]
  Activity: Active

## Cc1ncc2n1-c1ccc(Cl)cc1C(c1ccccc1F)=NC2 [MIDAZOLAM]
[22]
  metabolised at 1 h, 3 µM: 65%
[23]
  metabolised at 1 h, 3 µM: 65%
[24]
  metabolised at 1 h, 3 µM: 65%

## CCOP(=O)(O)C1=C[C@@H](OC(CC)CC)[C@H](NC(C)=O)[C@@H](N)C1 [TAMIPHOSPHOR MONOETHYL ESTER]
[25]
  Activity: Toxic
[26]
  Activity: Non-toxic
[27]
  Activity: Non-toxic
[28]
  Activity: Non-toxic
[29]
  Activity: Non-toxic
[30]
  Activity: Non-toxic
[31]
  Activity: Non-toxic
[32]
  Activity: Non-toxic
[33]
  Cp: BLD
[4]
  EC50: > 10 µM
[7]
  Activity: Non-toxic
[14]
  Activity: Active
[15]
  Activity: Active
[16]
  Activity: Active
[34]
  Activity: Active
[35]
  Activity: Active

## CCOP(=O)(O)C1=C[C@@H](OC(CC)CC)[C@H](NC(C)=O)[C@@H](NC(=N)N)C1 [TAMIPHOSPHOR MONOETHYL ESTER]
[14]
  Activity: Active
[15]
  Activity: Active
[16]
  Activity: Active
[34]
  Activity: Active
[35]
  Activity: Active
[17]
  Activity: Active
[18]
  Activity: inactive
[19]
  Activity: inactive
[20]
  Activity: inactive
[21]
  Activity: inactive

## CCC(CC)O[C@@H]1C=C(P(=O)(O)O)C[C@H](N)[C@H]1NC(C)=O [TAMIPHOSPHOR]
[36]
  Activity: Toxic
[37]
  Activity: Non-toxic
[38]
  Activity: Non-toxic
[39]
  Activity: Non-toxic
[40]
  Activity: Non-toxic
[41]
  Activity: Non-toxic
[42]
  Activity: Non-toxic
[43]
  Activity: Non-toxic
[3]
  IC50: 0.0018 µM
[4]
  EC50: > 10 µM
[7]
  Activity: Non-toxic
[14]
  Activity: Active
[15]
  Activity: Active
[16]
  Activity: Active

## C[C@]12CC[C@H]3[C@@H](CCC4=CC(=O)CC[C@@]43C)[C@@H]1CC[C@@H]2O [TESTOSTERONE]
[22]
  metabolised at 1 h, 3 µM: 65%
[23]
  metabolised at 1 h, 3 µM: 65%
[24]
  metabolised at 1 h, 3 µM: 65%

## CC(=O)N[C@H]1[C@H]([C@H](O)[C@H](O)CO)OC(C(=O)O)=C[C@@H]1N=C(N)N [ZANAMIVIR]
[44]
  bioavailability: 3.7%
